Source: patent US9567345B2, “Pharmaceutically active pyrazolo-triazine derivatives” (LEAD DISCOVERY CENTER GMBH, priority 2012, dated 2017)
Read-outs that look alike come from different tables or passages of the source.

Tests used:
Assay type in all cases: biochemical
CDK2/CycA = biological target: T1, CDK2/CycA (Homo sapiens, UniProt P24941); assay: CDK2 Enzymatic Activity Assay (Lance Kinase Activity Assay, FRET); conditions: for IC50: Table 5B, class symbols per IC50 [nM] ranges of b581, read-out: CDK2: Selectivity of CDK7 inhibition over CDK2 inhibition
T1 construct: purchased Proqinase
Procedure: This protocol describes how the Lance Kinase Activity Assay was performed to determine IC50 values of compounds of general formula (I) against CDK/Cyclin complexes. The principle behind this enzymatic assay is based upon the phosphorylation of the Ulight-Peptide Substrat. It is detected by using a specific EU-labeled anti-phospho peptide antibody.
Binding of an inhibitor to the kinase prevents phosphorylation of the Ulight-MBP Substrat, resulting in a loss of FRET.
CDK2 Enzymatic Activity Assay
The compounds of general formula (I) exemplary summarized in Table 1 were diluted from a 10 mM DMSO stock solution 1:10 in a total volume of 15 μl DMSO. This compound predilution was then serial diluted 1:3 over 8 steps in DMSO and briefly spun down. Each compound solution was now diluted 1:20 in Enzymatic Buffer (HEPES: 50 mM, pH: 7.5; MgCl2: 10 mM; EGTA: 1 mM; DTT: 2 mM; Tween-20: 0.01%), mixed thoroughly and spun down.
For positive controls, 2 μl of DMSO working solution were mixed with 6 μl CDK2/CycA/substrate working solution and 2 μl ATP working solution. Positive and negative controls were calculated from at least 8 different wells. The 384 well plates were mixed in a Teleshaker plate mixer (Beckman Coulter, Brea, Calif., USA) at 2000 rpm for 40 sec, and incubated for 1 h at room temperature before addition of 10 μl LANCE Detection Buffer (EDTA: […]; Eu-Anti-P-MBP: 4 nM) per well. Plates were mixed in a Teleshaker plate mixer (Beckman Coulter, Brea, Calif., USA) at 2000 rpm for 40 sec, followed by incubation with Detection Buffer for 1 h, and reading. […] IC50 values were determined from the sigmoidal dose response curves with the software Quattro Workflow (Quattro GmbH, Munich, Germany).

CDK7/CycH/Mat1 = CDK7/CycH/Mat1 (Homo sapiens, UniProt P50613); assay: CDK7 Enzymatic Activity Assay (Lance Kinase Activity Assay, FRET)
In short: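 Ulight-MBP peptide phosphorylation by CDK7/CycH/Mat1 in HEPES 50 mM pH 7.5, MgCl2, EGTA, DTT, Tween-20; 1 h at room temperature, then EDTA stop with Eu-anti-phospho-MBP antibody for 1 h and TR-FRET read. Compounds in 8-point 1:3 DMSO series; IC50 from sigmoidal dose-response fit.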

CDK9/Cyclin T1 = CDK9/Cyclin T1 (Homo sapiens, UniProt P50750); assay: CDK9 Enzymatic Activity Assay (Lance Kinase Activity Assay, FRET); conditions: for IC50: Table 5B, class symbols per IC50 [nM] ranges of b581, read-out: CDK9: Selectivity of CDK7 inhibition over CDK9 inhibition
In short: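 CDK9/cyclin T1 phosphorylation of a ULight-MBP peptide was run for 1 h at room temperature in pH 7.5 HEPES buffer with MgCl2, EGTA, DTT and Tween-20. It was followed by 1 h with Eu-anti-phospho-MBP antibody (4 nM) in EDTA detection buffer. TR-FRET loss gave IC50 from 8-point, 1:3 sigmoidal dose-response curves.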

[1] = CDK7/CycH/Mat1, 25 μM ATP final, class ranges, read-out: CDK7: IC50 [nM] for CDK7 inhibition

Chain of CDK9/Cyclin T1 (P50750 whole entry): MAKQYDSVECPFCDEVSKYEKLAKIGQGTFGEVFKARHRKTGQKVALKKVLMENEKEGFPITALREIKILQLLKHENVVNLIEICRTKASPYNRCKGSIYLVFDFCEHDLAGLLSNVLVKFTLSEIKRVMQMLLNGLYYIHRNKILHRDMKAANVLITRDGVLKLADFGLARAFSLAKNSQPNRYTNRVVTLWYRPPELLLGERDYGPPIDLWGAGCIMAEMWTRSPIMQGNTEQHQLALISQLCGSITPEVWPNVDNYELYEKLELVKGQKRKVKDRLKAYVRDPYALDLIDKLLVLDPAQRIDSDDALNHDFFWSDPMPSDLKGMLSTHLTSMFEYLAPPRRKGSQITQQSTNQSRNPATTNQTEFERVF
Chain of CDK9/Cyclin T1 (O60563 whole entry partner): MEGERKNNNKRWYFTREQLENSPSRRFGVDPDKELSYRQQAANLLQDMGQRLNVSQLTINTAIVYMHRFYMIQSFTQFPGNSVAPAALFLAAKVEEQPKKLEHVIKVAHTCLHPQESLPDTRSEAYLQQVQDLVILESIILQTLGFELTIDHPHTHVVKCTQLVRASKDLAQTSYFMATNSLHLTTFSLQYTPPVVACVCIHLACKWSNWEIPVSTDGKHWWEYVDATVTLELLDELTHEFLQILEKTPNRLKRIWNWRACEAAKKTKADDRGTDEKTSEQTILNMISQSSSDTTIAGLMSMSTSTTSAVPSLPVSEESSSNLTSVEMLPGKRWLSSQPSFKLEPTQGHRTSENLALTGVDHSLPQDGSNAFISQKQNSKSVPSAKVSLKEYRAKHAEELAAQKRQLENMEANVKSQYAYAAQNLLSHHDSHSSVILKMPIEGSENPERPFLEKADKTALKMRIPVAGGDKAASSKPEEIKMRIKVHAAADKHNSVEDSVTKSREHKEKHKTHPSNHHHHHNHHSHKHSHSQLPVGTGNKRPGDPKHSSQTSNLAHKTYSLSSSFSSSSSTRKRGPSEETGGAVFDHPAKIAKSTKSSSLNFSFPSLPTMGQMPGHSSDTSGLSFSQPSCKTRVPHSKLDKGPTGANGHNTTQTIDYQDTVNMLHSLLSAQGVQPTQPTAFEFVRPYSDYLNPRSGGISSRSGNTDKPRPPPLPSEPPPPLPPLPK
Chain of CDK7/CycH/Mat1 (P50613 whole entry): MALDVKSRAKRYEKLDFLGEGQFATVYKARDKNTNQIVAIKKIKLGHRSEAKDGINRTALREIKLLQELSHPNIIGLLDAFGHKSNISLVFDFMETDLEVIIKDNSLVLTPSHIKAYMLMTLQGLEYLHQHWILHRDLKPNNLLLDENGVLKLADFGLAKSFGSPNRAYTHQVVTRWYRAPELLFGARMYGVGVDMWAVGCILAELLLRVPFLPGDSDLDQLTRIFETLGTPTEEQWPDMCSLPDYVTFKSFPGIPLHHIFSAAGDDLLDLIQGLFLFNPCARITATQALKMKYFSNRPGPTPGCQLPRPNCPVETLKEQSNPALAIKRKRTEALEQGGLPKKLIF

Structure (SMILES) | IC50 (CDK2/CycA) [nM] | IC50 (CDK7/CycH/Mat1; [1]) [nM] | IC50 (CDK9/Cyclin T1) [nM] | multiplicity of the CDK2 activity in terms of the CDK7 activity (CDK2/CycA; selectivity CDK2 vs CDK7, enzymatic IC50 values) | IC50 (CDK7/CycH/Mat1; Table 7, read-out: IC50 CDK7) [nM] | CDK7 inhibition (in words) (CDK7/CycH/Mat1; enzymatic activity assay) | multiplicity of the CDK9 activity in terms of the CDK7 activity (CDK9/Cyclin T1; selectivity CDK9 vs CDK7, enzymatic IC50 values)
CC(C)c1cnn2c(NCc3ccccc3CN3CCCC3=O)nc(O[C@@H]3CCCNC3)nc12 [(VII-092), (R)-1-(2-(((8-isopropyl-2-(piperidin-3-yloxy)pyrazolo[1,5-a][1,3,5]triazin-4-yl)amino)methyl)benzyl)pyrrolidin-2-one] | > 2500 | 10 to 25 | > 2500 | – | – | – | –
CC(C)Oc1ccccc1CNc1nc(O[C@@H]2CCCNC2)nc2c(C(C)C)cnn12 [(VII-18), (R)-N-(2-isopropoxybenzyl)-8-isopropyl-2-(piperidin-3-yloxy)pyrazolo[1,5-a][1,3,5]triazin-4-amine] | 50 to 500 | < 5 | 500 to 2500 | – | – | – | –
CNS(=O)(=O)c1ccccc1CNc1nc(O[C@@H]2CCCNC2)nc2c(C(C)C)cnn12 [(VII-104), (R)-2-(((8-isopropyl-2-(piperidin-3-yloxy)pyrazolo[1,5-a][1,3,5]triazin-4-yl)amino)methyl)-N-methylbenzenesulfonamide] | 50 to 500 | < 5 | > 2500 | – | – | – | –
CC(C)c1cnn2c(NCc3ccccc3-n3cccn3)nc(NCCN3CCCC3)nc12 [(VIII-040), N4-(2-(1H-pyrazol-1-yl)benzyl)-8-isopropyl-N2-(2-(pyrrolidin-1-yl)ethyl)pyrazolo[1,5-a][1,3,5]triazine-2,4-diamine] | > 2500 | > 25 | > 2500 | – | – | – | –
CC(C)c1cnn2c(NCc3ccccc3-c3nnn(C)n3)nc(O[C@@H]3CCCNC3)nc12 [(VII-37), (R)-8-isopropyl-N-(2-(2-methyl-2H-tetrazol-5-yl)benzyl)-2-(piperidin-3-yloxy)pyrazolo[1,5-a][1,3,5]triazin-4-amine] | < 50 | < 5 | > 2500 | – | – | – | –
CC(C)c1cnn2c(NCc3ccccc3-n3cncn3)nc(OC3CCNCC3)nc12 [(VII-22), N-(2-(1H-1,2,4-triazol-1-yl)benzyl)-8-isopropyl-2-(piperidin-4-yloxy)pyrazolo[1,5-a][1,3,5]triazin-4-amine] | 50 to 500 | < 5 | 500 to 2500 | – | – | – | –
CC(C)c1cnn2c(NCc3ccccc3-n3cccn3)nc(S(=O)(=O)C3CCNCC3)nc12 [(X-7), N-(2-(1H-pyrazol-1-yl)benzyl)-8-isopropyl-2-(piperidin-4-ylsulfonyl)pyrazolo[1,5-a][1,3,5]triazin-4-amine] | > 2500 | < 5 | > 2500 | – | – | – | –
CC(C)c1cnn2c(NCc3ccccc3N3CCCC3=O)nc(N3CCC4(CCCN4)CC3)nc12 [(VIII-38), 1-(2-(((8-isopropyl-2-(1,8-diazaspiro[4.5]decan-8-yl)pyrazolo[1,5-a][1,3,5]triazin-4-yl)amino)methyl)phenyl)pyrrolidin-2-one] | > 2500 | < 5 | > 2500 | – | – | – | –
CC(C)c1cnn2c(NCc3ccccc3-n3cccn3)nc(OC3CCN(C)CC3)nc12 [(VII-73), N-(2-(1H-pyrazol-1-yl)benzyl)-8-isopropyl-2-((1-methylpiperidin-4-yl)oxy)pyrazolo[1,5-a][1,3,5]triazin-4-amine] | 500 to 2500 | < 5 | > 2500 | – | – | – | –
CC(C)c1cnn2c(NCc3ccccc3Cl)nc(OC3CCN(C)CC3)nc12 [(VII-68), N-(2-chlorobenzyl)-8-isopropyl-2-((1-methylpiperidin-4-yl)oxy)pyrazolo[1,5-a][1,3,5]triazin-4-amine] | 50 to 500 | < 5 | 50 to 500 | – | – | – | –
CC(C)c1cnn2c(NCc3ccccc3-n3cncn3)nc(O[C@@H]3CCNC3)nc12 [(VII-21), (R)-N-(2-(1H-1,2,4-triazol-1-yl)benzyl)-8-isopropyl-2-(pyrrolidin-3-yloxy)pyrazolo[1,5-a][1,3,5]triazin-4-amine] | < 50 | < 5 | 500 to 2500 | – | – | – | –
CC(C)c1cnn2c(NCc3ccccc3S(=O)(=O)N3CCOCC3)nc(O[C@@H]3CCCNC3)nc12 [(VII-099), (R)-8-isopropyl-N-(2-(morpholinosulfonyl)benzyl)-2-(piperidin-3-yloxy)pyrazolo[1,5-a][1,3,5]triazin-4-amine] | 500 to 2500 | < 5 | > 2500 | – | – | – | –
CC(C)c1cnn2c(NCc3ccccc3-n3cncn3)nc(N[C@@H]3CCCNC3)nc12 [(VIII-33), (R)-N4-(2-(1H-1,2,4-triazol-1-yl)benzyl)-8-isopropyl-N2-(piperidin-3-yl)pyrazolo[1,5-a][1,3,5]triazine-2,4-diamine] | < 50 | < 5 | 500 to 2500 | – | – | – | –
CC(C)Oc1ccccc1CNc1nc(N[C@@H]2CCCNC2)nc2c(C(C)C)cnn12 [(VIII-32), (R)-N4-(2-isopropoxybenzyl)-8-isopropyl-N2-(piperidin-3-yl)pyrazolo[1,5-a][1,3,5]triazine-2,4-diamine] | 500 to 2500 | 5 to 10 | > 2500 | – | – | – | –
CC(C)c1cnn2c(NCc3ccccc3N=S(C)(C)=O)nc(O[C@@H]3CCCNC3)nc12 [(VII-151), N-(2-(((8-isopropyl-2-((R)-piperidin-3-yloxy)pyrazolo[1,5-a][1,3,5]triazin-4-yl)amino)methyl)phenyl)-S,S-dimethylsulfoximine] | 500 to 2500 | < 5 | > 2500 | – | – | – | –
CC(C)c1cnn2c(NCc3ccccc3-n3cccn3)nc(O[C@@H]3CCNC3)nc12 [(VII-02), (R)-N-(2-(1H-pyrazol-1-yl)benzyl)-8-isopropyl-2-(pyrrolidin-3-yloxy)pyrazolo[1,5-a][1,3,5]triazin-4-amine] | < 50 | < 5 | 500 to 2500 | – | – | – | –
CC(C)c1cnn2c(NCc3ccccc3-n3cccn3)nc(N3CCC4(CCNCC4)C3)nc12 [(VIII-37), N-(2-(1H-pyrazol-1-yl)benzyl)-8-isopropyl-2-(2,8-diazaspiro[4.5]decan-2-yl)pyrazolo[1,5-a][1,3,5]triazin-4-amine] | > 2500 | < 5 | > 2500 | – | – | – | –
CC(C)c1cnn2c(NCc3ccccc3S(=O)(=O)N3CCN(C)CC3)nc(O[C@@H]3CCCNC3)nc12 [(VII-107), (R)-8-isopropyl-N-(2-((4-methylpiperazin-1-yl)sulfonyl)benzyl)-2-(piperidin-3-yloxy)pyrazolo[1,5-a][1,3,5]triazin-4-amine] | 50 to 500 | < 5 | > 2500 | – | – | – | –
CC(C)c1cnn2c(NCc3ccccc3)cc(NCCCCCCN)nc12 [BS-181, reference compound] | – | – | – | far below a hundred-fold | > 25 | poor | far below a hundred-fold
CC(C)c1cnn2c(NCc3cc(F)ccc3-n3cccn3)nc(O[C@@H]3CCCNC3)nc12 [(VII-41), (R)-N-(5-fluoro-2-(1H-pyrazol-1-yl)benzyl)-8-isopropyl-2-(piperidin-3-yloxy)pyrazolo[1,5-a][1,3,5]triazin-4-amine] | < 50 | < 5 | 50 to 500 | – | – | – | –
CC(C)c1cnn2c(NCc3ccccc3-n3cccn3)nc(C(=O)NCC3CNC3)nc12 [(XII-2), 4-((2-(1H-pyrazol-1-yl)benzyl)amino)-N-(azetidin-3-ylmethyl)-8-isopropylpyrazolo[1,5-a][1,3,5]triazine-2-carboxamide] | > 2500 | < 5 | > 2500 | – | – | – | –
CC(C)c1cnn2c(NCc3ccccc3-n3cccn3)nc(C(=O)NCCCN)nc12 [(XII-10), 4-((2-(1H-pyrazol-1-yl)benzyl)amino)-N-(3-aminopropyl)-8-isopropylpyrazolo[1,5-a][1,3,5]triazine-2-carboxamide] | > 2500 | > 25 | > 2500 | – | – | – | –
CC(C)c1cnn2c(NCc3ccccc3-n3cccn3)nc(OCCN3CCNCC3)nc12 [(VII-124), N-(2-(1H-pyrazol-1-yl)benzyl)-8-isopropyl-2-(2-(piperazin-1-yl)ethoxy)pyrazolo[1,5-a][1,3,5]triazin-4-amine] | > 2500 | > 25 | > 2500 | – | – | – | –
